Source: patent US11820804B2, “Peptide-based inhibitors of growth hormone action and methods of use thereof” (Ohio University, priority 2018, dated 2023)

Columns and labels:
Type in all cases: cell-based
[1] = test system: hGH mediated STAT5 phosphorylation in SK-MEL-28 human melanoma cells; assay: Western blot of hGH mediated STAT5 phosphorylation in SK-MEL-28 cells; conditions: co-treated with 2.5 nM recombinant hGH, peptide at 25 and 250 nM, 20 minutes
Procedure: (§1) Human malignant melanoma cell lines—SK-MEL-28, SK-MEL-30, human lymphoblast IM9 cells, mouse fibroblast L cells were obtained from American Type Culture Collection (ATCC; Manassas, Va.). SK-MEL-28 were grown and maintained in EMEM media (ATCC), while IM9 and L cells were grown in RPMI-1640 (ATCC) and DMEM (ATCC) respectively, as indicated by ATCC protocols. Complete growth media was supplemented with 10% fetal bovine serum (FBS; ATCC) and 1×antibiotic-antimycotic (Thermo Fisher Scientific, Waltham, Mass.). Cells were grown at 37° C./5% CO2 in a humidified incubator. Media was replaced every 48 hours. No hGH was present in the media or added externally unless specifically mentioned. For hGH treatment of adherent cells, 12-16 hours after seeding the cells were serum-starved for 4 hours in serum free growth media and hGH (or PBS as control) was added at the mentioned concentrations (50 ng/mL=2.5 nM or other concentrations). […]
(§2) Western blotting was performed following established lab procedures. […] Membranes were then washed and treated with West Femto Chemiluminiscence® detection reagents (Thermo Fisher Scientific) and the chemiluminiscence signal was captured using a GelDoc® (Biorad) fluorescence reader. Densitometry analysis of the blots was done by measured band-intensity from the area-under-curve using ImageJ® software. […]

[2] = test system: hGH mediated STAT5 phosphorylation in IM9 human lymphoblast cells; assay: Western blot of hGH mediated STAT5 phosphorylation in IM9 cells; conditions: co-treated with 2.5 nM recombinant hGH, peptide at 25 and 250 nM, 20 minutes
Procedure: as §1, §2

[3] = test system: hGH mediated STAT5 phosphorylation in L mouse fibroblasts cells; assay: Western blot of hGH mediated STAT5 phosphorylation in L cells; conditions: L mouse fibroblast cells, co-treated with 2.5 nM recombinant hGH, peptide at 25 and 250 nM, 20 minutes
Procedure: as §1, §2

[4] = test system: tyrosine pSTAT5 levels following hGH stimulation; assay: tyrosine pSTAT5 levels following hGH stimulation (cells not named at the place); conditions: general statement, cell line not named
Excerpt: A hallmark of hGH action is rapid tyrosine phosphorylation of the STAT5(A and B) transcription factor protein following binding of hGH to hGHR and transactivation of hGHR associated JAK2. The phosphorylation event is rapid (minutes following hGH addition) and has been used as a readout of hGHR activation. Inhibitors of hGH action blocks hGH-hGHR mediated STAT5 tyrosine phosphorylation in many cells, including IM9, SK-MEL-28, mouse fibroblasts, and other cells which express hGHR.
as §1, with “mentioned.” for “mentioned. For hGH treatment of adherent cells, 12-16 hours after seeding the cells were serum-starved for 4 hours in serum free growth media and hGH (or PBS as control) was added at the mentioned concentrations (50 ng/mL=2.5 nM or other concentrations).”

Tyr Ile Pro Lys Glu Gln Lys Tyr Ser Phe Leu Gln Asn Pro Gln Thr (YIPKEQKYSFLQNPQT; listed as Homo sapiens) [S1H, 16-amino acid peptide mimicking hGH site 1 helix, residues 36-51]
hGH mediated STAT5 phosphorylation (pSTAT5 levels) [1]: downregulates hGH mediated STAT5 phosphorylation | hGH mediated STAT5 phosphorylation (phospho-STAT5 levels) [2]: downregulates hGH mediated STAT5 phosphorylation | hGH mediated STAT5 phosphorylation (phospho-STAT5 levels) [3]: downregulates hGH mediated STAT5 phosphorylation | tyrosine pSTAT5 levels following hGH stimulation [4]: robustly blocks tyrosine pSTAT5 levels following hGH stimulation, in a dose-dependent manner
